Measurements published in EP0513703A2, “Carbamate esters of eseroline having anticholinesterase activity, a process for their preparation and relative pharmaceutical compositions containing them as the active principle” (priority 1991, dated 1992).
“And” between values parts separate entries of the source, which are not always exact repeats. Equal values may be shown once.

Assays:
mouse [1] = assay: Toxicity, LD50 by intraperitoneal route (class C derivatives); assay type: in vivo
Source text: In the following table reported are the LD50 values determined on mouse for the compounds listed and compared with the corresponding LD50 value for physostigmine, administered by the same (intraperitoneal) route.

[2] = system: acetylcholinesterase (AchE); assay type: in vivo, Wistar male rats; settings: rat, oral, 1.5 to 4.5 mg/kg
mice (Swiss strain) [3] = assay: Acute toxicity, LD50 by oral route in mice (class A derivatives); assay type: in vivo; settings: mouse, suspension in 2 % carboxymethylcellulose, observation 7 days
Source text: The letal doses 50 (LD50) by oral route (suspension in 2 % carboxymethylcellulose) are reported herinbelow: TABLE 1

mouse [4] = assay: Spontaneous motility, Dews method modified according to Carminati (class A derivatives); assay type: in vivo; settings: mouse (Swiss), oral, starting from minimum doses of 4-6 mg/kg
Source text: (§1) The Dews method was used, modified according to Carminati (Arch. int. Pharmacodyn. et Thér 181, 68,1969).

[5] = biological target: T1, acetylicholinesterase enzyme in the mouse brain (Mus musculus, UniProt P21836); assay: Inhibition of acetylcholinesterase in the mouse brain after single doses (class B derivatives); assay type: in vivo; settings: single doses in the range 0.4-7mg/kg
T1 construct: from tissue; host or cells: mouse brain
T1 sequence (P21836 32-614): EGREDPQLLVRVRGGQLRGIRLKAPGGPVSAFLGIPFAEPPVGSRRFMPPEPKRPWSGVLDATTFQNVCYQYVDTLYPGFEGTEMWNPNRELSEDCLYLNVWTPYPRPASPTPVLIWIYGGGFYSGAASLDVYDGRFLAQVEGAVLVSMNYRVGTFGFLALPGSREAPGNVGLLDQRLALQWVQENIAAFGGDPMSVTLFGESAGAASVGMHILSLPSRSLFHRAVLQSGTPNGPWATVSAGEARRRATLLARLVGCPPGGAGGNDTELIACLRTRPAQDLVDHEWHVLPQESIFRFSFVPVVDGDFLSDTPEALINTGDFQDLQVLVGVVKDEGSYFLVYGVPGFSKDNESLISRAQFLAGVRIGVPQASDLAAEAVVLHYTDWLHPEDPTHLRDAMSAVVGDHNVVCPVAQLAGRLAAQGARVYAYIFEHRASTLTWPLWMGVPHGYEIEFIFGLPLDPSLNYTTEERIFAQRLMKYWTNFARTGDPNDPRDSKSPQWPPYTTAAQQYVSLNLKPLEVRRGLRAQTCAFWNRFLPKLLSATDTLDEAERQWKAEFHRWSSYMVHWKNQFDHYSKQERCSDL

mice = assay: Toxicity, LD50 by intraperitoneal route (class B derivatives); assay type: in vivo; settings: death within 24 hours of 50% of the tested animals
Source text: In the following table reported are LD50 values determined on mice for the listed compounds and compared with that of physostigmine administered by the same (intraperitoneal) route.

motor activity = assay: Antagonist effect on the stimulating effect of scopolamine (class C derivatives); assay type: in vivo; settings: scopolamine 1 mg/kg; oral administration
Procedure: This is countered by the oral administration of 2.5 mg of ES001, ES002, ES003.

[6] = system: anticholinesterase activity, on the mouse brain; assay: Inhibition of cholinesterase activity on the mouse brain after single doses (class C derivatives); assay type: in vivo; settings: for suppression of the enzymatic activity: even at higher doses; for duration of the inhibitory activity compared with physostigmine: mouse brain; for inhibition of the anticholinesterase activity, on the mouse brain (in words): single doses in the range 0.4-7mg/kg
mouse [7] = assay: Spontaneous motility, Dews method modified according to Carminati (class E derivatives); assay type: in vivo; settings: mouse (Strain Swiss); for decrease of the spontaneous motility (on average): oral, 0.25 mg/kg
Source text: as §1

mice (Swiss strain) [8] = assay: Acute toxicity, LD50 by oral route in mice (class E derivatives); assay type: in vivo; settings: mouse, suspension in 2 % carboxymethylcellulose, observation 7 days
Source text: The letal doses 50 (LD50) by oral route (suspension in 2 % carboxymethylcellulose) are reported herinbelow: TABLE 9

Molecule: CCCCCCCCCCCCCCCCCC(=O)OC(CCCCCC)CNC(=O)Oc1ccc2c(c1)[C@]1(C)CCN(C)[C@@H]1N2C (stereo partly drawn) [ES007, trimethyl-1,3a,8 hexahydro-1,2,3a,8,8a-pyrrol(2,3-b)indol-5-(3aS,8aR)-2-stearoyloxyoctanylcarbamate]
- LD50 (mg/kg i.p) (mouse [1]): >40 mg/kg i.p and <80 mg/kg i.p

Molecule: CC(C)C[C@H](NC(=O)Oc1ccc2c(c1)[C@]1(C)CCN(C)[C@@H]1N2C)C(=O)O [MGS103, (3-aS-cis) 1,2,3,3a,8,8a-hexahydro 1,3a,8-trimethyl pyrrol [2,3-b]-indol-5-ol-L-2(4-methylvaleric acid) carbamate ester]
- inhibitory cerebral and serumal acetylcholinesterase activity (in words) [2]: clear inhibitory dose-dependent and reversible
- LD50 per os (mice (Swiss strain) [3]): 412.6 ± 46.34 mg/kg
- decrease of the spontaneous motility (on average) (mouse [4]): ~-30%

Molecule: CC(CC(=O)O)NC(=O)Oc1ccc2c(c1)[C@]1(C)CCN(C)[C@@H]1N2C (some centres unmarked) [Compound M008]
- inhibition of acetylicholinesterase enzyme in the mouse brain (in words) [5]: dose -dependence, reversible inhibition
- LD50 (mg/kg i.p.) (mice): >20 mg/kg i.p. and <40 mg/kg i.p.

Molecule: CC(CNC(=O)Oc1ccc2c(c1)[C@]1(C)CCN(C)[C@@H]1N2C)C(=O)O (some centres unmarked) [Compound M002]
- inhibition of acetylicholinesterase enzyme in the mouse brain (in words) [5]: dose -dependence, reversible inhibition
- LD50 (mg/kg i.p.) (mice): >40 mg/kg i.p. and <80 mg/kg i.p.

Molecule: CN1CC[C@@]2(C)c3cc(OC(=O)NCC(C)(O)c4ccccc4)ccc3N(C)[C@@H]12 (stereo partly drawn) [ES004, trimethyl-1,3a,8, hexahydro-1,2,3a, 8,8a-pyrrol (2,3-b) indol-5 (3aS,8aR)-2-hydroxy-2-phenylpropylcarbamate]
- LD50 (mg/kg i.p) (mouse [1]): >10 mg/kg i.p and <15 mg/kg i.p

Molecule: CN1CC[C@@]2(C)c3cc(OC(=O)NCCC(=O)O)ccc3N(C)[C@@H]12 [Compound M001]
- inhibition of acetylicholinesterase enzyme in the mouse brain (in words) [5]: dose -dependence, reversible inhibition
- LD50 (mg/kg i.p.) (mice): >20 mg/kg i.p. and <40 mg/kg i.p.

Molecule: CN1CC[C@@]2(C)c3cc(OC(=O)NCC(O)CC4CCCCC4)ccc3N(C)[C@@H]12 (stereo partly drawn) [ES008, trimethyl-1,3a,8, hexahydro-1,2,3a,8,-8a pyrrol(2,3-b)indol-5-(3aS,8aR)-3-cyclohexyl-2-hydroxypropylcarbamate]
- LD50 (mg/kg i.p) (mouse [1]): >20 mg/kg i.p and <30 mg/kg i.p

Molecule: CC(O)CNC(=O)Oc1ccc2c(c1)[C@]1(C)CCN(C)[C@@H]1N2C (stereo partly drawn) [ES001, trimethyl-1,3a,8 hexahydro-1,2,3a,8,8a-pyrrol(2,3-b)indol-5(3aS,8aR)2-hydroxypropylcarbamate]
- LD50 (mg/kg i.p) (mouse [1]): >20 mg/kg i.p and <40 mg/kg i.p
- oral dose countering the stimulating effect of scopolamine (motor activity): 2.5 mg
- suppression of the enzymatic activity [6]: do not completely suppress the enzymatic activity
- duration of the inhibitory activity compared with physostigmine [6]: lasts longer than that of physostigmine
- inhibition of the anticholinesterase activity, on the mouse brain (in words) [6]: dose-dependence, reversible inhibition

Molecule: CN1CC[C@@]2(C)c3cc(OC(=O)NCCCCCNC(=O)Oc4ccc5c(c4)[C@]4(C)CCN(C)[C@@H]4N5C)ccc3N(C)[C@@H]12 [MS007, (3a S-cis) - 1,2,3,3a,8,8a hexahydro - 1,3a,8 - trimethyl pyrrol [2,3-b]-indol-5-ol-1,5-pentandicarbamate ester]
- oral dose causing a significant decrease of the spontaneous motility (mouse [7]): 0.25 mg/kg
- decrease of the spontaneous motility (on average) (mouse [7]): ~-25%
- LD50 per os (mice (Swiss strain) [8]): 64.26 ± 10.29 mg/kg

Molecule: CN1CC[C@@]2(C)c3cc(OC(=O)NCCC(O)CC(=O)O)ccc3N(C)[C@@H]12 (some centres unmarked) [Compound M009]
- inhibition of acetylicholinesterase enzyme in the mouse brain (in words) [5]: dose -dependence, reversible inhibition
- LD50 (mg/kg i.p.) (mice): >20 mg/kg i.p. and <40 mg/kg i.p.

Molecule: CN1CC[C@@]2(C)c3cc(OC(=O)NCCCCCCCCC(=O)O)ccc3N(C)[C@@H]12 [Compound M003]
- inhibition of acetylicholinesterase enzyme in the mouse brain (in words) [5]: dose -dependence, reversible inhibition
- LD50 (mg/kg i.p.) (mice): >30 mg/kg i.p. and <60 mg/kg i.p.

Molecule: CN1CC[C@@]2(C)c3cc(OC(=O)NCC(=O)O)ccc3N(C)[C@@H]12 [MGS105, (3-as-cis) 1,2,3,3a,8,8a-hexahydro 1,3a,8-trimethyl pyrrol [2,3-b]-indol-5-ol (acetic acid) carbamate ester]
- inhibitory cerebral and serumal acetylcholinesterase activity (in words) [2]: clear inhibitory dose-dependent and reversible
- LD50 per os (mice (Swiss strain) [3]): 345.6 ± 24.86 mg/kg
- decrease of the spontaneous motility (on average) (mouse [4]): ~-30%

Molecule: CN1CC[C@@]2(C)c3cc(OC(=O)NC(CO)C(=O)O)ccc3N(C)[C@@H]12 (some centres unmarked) [Compound M006]
- inhibition of acetylicholinesterase enzyme in the mouse brain (in words) [5]: dose -dependence, reversible inhibition

Molecule: CN1CC[C@@]2(C)c3cc(OC(=O)Nc4ccccc4O)ccc3N(C)[C@@H]12 [ES005, trimethyl-1,3a,8 hexahydro-1,2,3a,8,8a-pyrrol(2,3-b)indol-5(3aS,8aR)-2-hydroxy-phenyl-carbamate]
- LD50 (mg/kg i.p) (mouse [1]): >15 mg/kg i.p and <30 mg/kg i.p

Molecule: CC(C)[C@H](NC(=O)Oc1ccc2c(c1)[C@]1(C)CCN(C)[C@@H]1N2C)C(=O)O [MGS104, (3-as-cis) 1,2,3,3a,8,8a-hexahydro 1,3a,8-trimethyl pyrrol [2,3-b]-indol-5-ol-L-(3-methylbutyric acid) carbamate ester]
- inhibitory cerebral and serumal acetylcholinesterase activity (in words) [2]: clear inhibitory dose-dependent and reversible
- LD50 per os (mice (Swiss strain) [3]): 423.0 ± 35.21 mg/kg
- decrease of the spontaneous motility (on average) (mouse [4]): ~-30%

Molecule: CN1CC[C@@]2(C)c3cc(OC(=O)NCCCCCCCNC(=O)Oc4ccc5c(c4)[C@]4(C)CCN(C)[C@@H]4N5C)ccc3N(C)[C@@H]12 [MS011, (3a S-cis) - 1,2,3,3a,8,8a hexahydro - 1,3a,8 - trimethyl pyrrol [2,3-b]-indol-5-ol-1,7-heptandicarbamate ester]
- oral dose causing a significant decrease of the spontaneous motility (mouse [7]): 0.25 mg/kg
- decrease of the spontaneous motility (on average) (mouse [7]): ~-25%
- LD50 per os (mice (Swiss strain) [8]): 63.31 ± 9.32 mg/kg

Molecule: CCCCCCCC/C=C\CCCCCCCC(=O)OC(C)CNC(=O)Oc1ccc2c(c1)[C@]1(C)CCN(C)[C@@H]1N2C (stereo partly drawn) [ES002, trimethyl-1,3a,8 hexahydro-1,2,3a,8,8a-pyrrol(2,3-b)indol-5(3aS,8aR)-2-oleoxypropylcarbamate]
- LD50 (mg/kg i.p) (mouse [1]): >40 mg/kg i.p and <80 mg/kg i.p
- oral dose countering the stimulating effect of scopolamine (motor activity): 2.5 mg
- suppression of the enzymatic activity [6]: do not completely suppress the enzymatic activity
- duration of the inhibitory activity compared with physostigmine [6]: lasts longer than that of physostigmine
- inhibition of the anticholinesterase activity, on the mouse brain (in words) [6]: dose-dependence, reversible inhibition

Molecule: CN1CC[C@@]2(C)c3cc(OC(=O)NCCCCCCCCNC(=O)Oc4ccc5c(c4)[C@]4(C)CCN(C)[C@@H]4N5C)ccc3N(C)[C@@H]12 [MS002, Salicylate of (3a S-cis) - 1,2,3a,8,8a hexahydro - 1,3a,- trimethyl pyrrol [2,3-b]-indol-5-ol-1,8-octandicarbamate ester]
- oral dose causing a significant decrease of the spontaneous motility (mouse [7]): 0.25 mg/kg
- decrease of the spontaneous motility (on average) (mouse [7]): ~-25%
- LD50 per os (mice (Swiss strain) [8]): 48.98 ± 6.31 mg/kg

Molecule: CN1CC[C@@]2(C)c3cc(OC(=O)NCC(O)CC(=O)O)ccc3N(C)[C@@H]12 (some centres unmarked) [Compound M007]
- inhibition of acetylicholinesterase enzyme in the mouse brain (in words) [5]: dose -dependence, reversible inhibition
- LD50 (mg/kg i.p.) (mice): >30 mg/kg i.p. and <60 mg/kg i.p.

Molecule: CN1CC[C@@]2(C)c3cc(OC(=O)NCCCCCCNC(=O)Oc4ccc5c(c4)[C@]4(C)CCN(C)[C@@H]4N5C)ccc3N(C)[C@@H]12 [MS010, (3a S-cis) - 1,2,3,3a,8,8a hexahydro - 1,3a,8 - trimethyl pyrrol [2,3-b]-indol-5-ol-1,6-hexandicarbamate ester]
- oral dose causing a significant decrease of the spontaneous motility (mouse [7]): 0.25 mg/kg
- decrease of the spontaneous motility (on average) (mouse [7]): ~-25%
- LD50 per os (mice (Swiss strain) [8]): 50.65 ± 5.48 mg/kg

Molecule: trimethyl -1,3a,8-hexahydro-1,2,3a,8,8a-pyrrol(2,3-b)indol-5-(3aS,8aR)12-hydroxystearylpropylcarbamate [ES003]
- LD50 (mg/kg i.p) (mouse [1]): >40 mg/kg i.p and <80 mg/kg i.p
- oral dose countering the stimulating effect of scopolamine (motor activity): 2.5 mg
- suppression of the enzymatic activity [6]: do not completely suppress the enzymatic activity
- duration of the inhibitory activity compared with physostigmine [6]: lasts longer than that of physostigmine
- inhibition of the anticholinesterase activity, on the mouse brain (in words) [6]: dose-dependence, reversible inhibition
